Key:
c-kit kinase = c-kit kinase (Homo sapiens (Human), UniProt P10721); assay: c-Kit biochemical assay (AlphaScreen); details: c-kit biochemical inhibitory activity
Protocol: Assays for biochemical cell-based activity of c-kit kinase are known in the art, for example, as described in U.S. Pat. Nos. 7,498,342 and 7,846,941, the disclosures of which are hereby incorporated by reference as it relates to such assays. The c-kit (or kinase domain thereof) is an active kinase in AlphaScreen. IC50 values are determined with respect to inhibition of c-Kit kinase activity, where inhibition of phosphorylation of a peptide substrate is measured as a function of compound concentration. Compounds to be tested were dissolved in DMSO to a concentration of 20 mM. These were diluted 30 μl into 120 μl of DMSO (4 mM) and 1 μl was added to an assay plate. These were then serially diluted 1:3 (50 μl to 100 μl DMSO) for a total of 8 points. Plates were prepared such that each kinase reaction is 20 μl in 1× kinase buffer (50 mM HEPES, pH 7.2, 5 mM MgCl2, 5 mM MnCl2, 0.01% NP-40, 0.2% BSA), 5% DMSO and 10 µM ATP. Substrate was 100 nM biotin-(E4Y)3 (Open Source Biotech, Inc.). C-kit kinase was at 0.1 ng per sample. After incubation of the kinase reaction for 1 hour at room temperature, 5 μl of donor beads (Streptavidin coated beads (Perkin Elmer Life Science) final concentration 1 μg/ml) in stop buffer (50 mM EDTA in 1× kinase buffer) was added, the sample was mixed and incubated for 20 minutes at room temperature before adding 5 μl of acceptor beads (PY20 coated beads (Perkin Elmer Life Science) final concentration 1 μg/ml) in stop buffer. The samples were incubated for 60 minutes at room temperature and the signal per well was read on AlphaQuest reader. Phosphorylated substrate results in binding of the PY20 antibody and association of the donor and acceptor beads such that signal correlates with kinase activity. The signal vs. compound concentration was used to determine the IC50.
Compounds were also tested using a similar assay with a 10-fold higher ATP concentration. For these samples, compounds to be tested were dissolved in DMSO to a concentration of 20 mM. These were diluted 30 μl into 120 μl of DMSO (4 mM) and 1 μl was added to an assay plate. These were then serially diluted 1:3 (50 μl to 100 μl DMSO) for a total of 8 points. Plates were prepared such that each kinase reaction is 20 μl in 1× kinase buffer (25 mM HEPES, pH 7.5, 2 mM MgCl2, 2 mM MnCl2, 0.01% Tween-20, 1 mM DTT, and 0.001% BSA), 5% DMSO and 100 µM ATP. Substrate was 30 nM biotin-(E4Y)10 (Upstate Biotech, Cat#12-440). C-kit kinase was at 1 ng per sample. After incubation of the kinase reaction for 1 hour at room temperature, 5 μl of donor beads (Streptavidin coated beads (Perkin Elmer Life Science) final concentration 10 μg/ml) in stop buffer (25 mM HEPES pH 7.5, 100 mM EDTA, 0.3% BSA) was added, the sample was mixed and incubated for 20 minutes at room temperature before adding 5 μl of acceptor beads (PY20 coated beads (Perkin Elmer Life Science) final concentration 10 μg/ml) in stop buffer. The samples were incubated for 60 minutes at room temperature and the signal per well was read on AlphaQuest or Envision reader (Perkin Elmer Life Science). Phosphorylated substrate results in binding of the PY20 antibody and association of the donor and acceptor beads such that signal correlates with kinase activity. The signal vs. compound concentration was used to determine the IC50.
The c-kit enzyme used in the above assay was either obtained from Cell Signaling Technology (Cat. #7754) or was prepared as follows: A plasmid encoding kit (DNA and encoded protein sequences shown below) was engineered using common polymerase chain reaction (PCR) methods. Complementary DNA cloned from various human tissues were purchased from Invitrogen, and these were used as substrates in the PCR reactions. Specific custom synthetic oligonucleotide primers were designed to initiate the PCR product, and also to provide the appropriate restriction enzyme cleavage sites for ligation with the plasmids. […]

c-kit mutant D816V = c-kit mutant D816V (Homo sapiens (Human), UniProt P10721, D816V/DEL694-753); assay: c-Kit mutant D816V biochemical assay (AlphaScreen); details: c-kit D816V biochemical inhibitory activity
Chain of c-kit mutant D816V (P10721 other isoform, or with tags, fused parts or gaps D816V/del 694-753): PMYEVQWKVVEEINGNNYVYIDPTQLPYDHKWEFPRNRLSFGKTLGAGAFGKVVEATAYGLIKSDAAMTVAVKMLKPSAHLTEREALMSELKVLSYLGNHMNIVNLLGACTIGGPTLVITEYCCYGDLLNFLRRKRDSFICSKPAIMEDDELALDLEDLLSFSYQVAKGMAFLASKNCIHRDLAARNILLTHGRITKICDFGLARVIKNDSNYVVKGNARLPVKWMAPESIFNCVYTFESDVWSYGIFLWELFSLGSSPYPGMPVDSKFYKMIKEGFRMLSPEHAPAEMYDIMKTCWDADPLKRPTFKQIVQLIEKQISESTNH
Protocol: The c-kit mutant D816V (or kinase domain thereof) is an active kinase in AlphaScreen. IC50 values are determined with respect to inhibition of c-Kit mutant D816V kinase activity, where inhibition of phosphorylation of a peptide substrate is measured as a function of compound concentration. Compounds to be tested were dissolved in DMSO to a concentration of 20 mM. These were diluted 30 μl into 120 μl of DMSO (4 mM) and 1 μl was added to an assay plate. These were then serially diluted 1:3 (50 μl to 100 μl DMSO) for a total of 8 points. Plates were prepared such that each kinase reaction is 20 μl in 1× kinase buffer (25 mM HEPES, pH 7.2, 8 mM MgCl2, 2 mM MnCl2, 50 mM NaCl, 0.01% Brij, 1 mM DTT, 0.01% BSA), 5% DMSO and 10 μM ATP. Substrate was 30 nM biotin-(E4Y)10 (EMD Millipore, Cat#12-440). C-kit mutant D816V kinase was at 0.75 ng per sample. After incubation of the kinase reaction for 30 minutes at room temperature, 5 μl of donor beads (Streptavidin coated beads (Perkin Elmer Life Science) final concentration 7.5 μg/ml) in stop buffer (25 mM Hepes pH 7.5, 100 mM EDTA, 0.01% BSA) was added, the sample was mixed and incubated for 20 minutes at room temperature before adding 5 μl of acceptor beads (PY20 coated beads (Perkin Elmer Life Science) final concentration 7.5 ug/ml) in stop buffer. The samples were incubated for 60 minutes at room temperature and the signal per well was read on EnVision reader. Phosphorylated substrate results in binding of the PY20 antibody and association of the donor and acceptor beads such that signal correlates with kinase activity. The signal vs. compound concentration was used to determine the IC50.
Recombinant c-kit mutant D816V (residues 551-934, kinase insertion domain residues 694-753 deleted) with a 6x-histidine N-terminal tag was expressed in E. coli Arctic Express (DE3) RIL (Stratagene). Cells were grown in Terrific Broth (TB) media to an OD600 of 0.6 at 37° C. at which temperature was reduced to 10° C., protein was induced with 1.0 mM IPTG for 18 hours and harvested by centrifugation at 8000×g for 20 minutes. Cells were re-suspended in 0.1M KPO4 pH 8.0, 250 mM NaCl, 10% Glycerol, 0.75% NP-40, 25 mM Imidazole, 5 mM BME with 0.2 mg/ml Lysosyme, 2.0 mM PMSF, 25 μg/ml DNAse I, incubated in ice for 30 minutes and lyzed with a cell disruptor (MicroFluidics). The lysate was clarified by centrifugation at 20,000×g for 2 hours. The protein was captured with Talon resin (Clontech). Contaminating proteins were washed off with 25 mM Tris-HCl pH 8.3, 250 mM NaCl, 15% Glycerol, 1% Triton X-100, and protein eluted using 100 mM EDTA. The protein was further purified using Gel Filtration column 26/600 Superdex 200 (GE) in 50 mM Tris-HCl, pH 8.0, 250 mM NaCl, 15% Glycerol, 5 mM BME. The protein was aliquoted and flash-frozen in liquid Nitrogen.

[1] = test system: BaF3-FL KIT D816V or BaF3-FL KIT V560G/D816V cell line; assay: Cell-based assays of c-Kit mutant kinase activity (cell growth, ATPlite); details: at least one of the c-kit cell assays of Example 26
In short: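 BaF3 cells dependent on full-length human KIT (D816V or V560G/D816V) seeded at 1×10^4 cells/well in RPMI with 10% FBS. Eight-point 1:3 dilutions from 10 μM top final (0.2% DMSO), 3 days at 37° C., 5% CO2. ATPlite luminescence gave IC50.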

Chain of c-kit kinase (P10721 26-976): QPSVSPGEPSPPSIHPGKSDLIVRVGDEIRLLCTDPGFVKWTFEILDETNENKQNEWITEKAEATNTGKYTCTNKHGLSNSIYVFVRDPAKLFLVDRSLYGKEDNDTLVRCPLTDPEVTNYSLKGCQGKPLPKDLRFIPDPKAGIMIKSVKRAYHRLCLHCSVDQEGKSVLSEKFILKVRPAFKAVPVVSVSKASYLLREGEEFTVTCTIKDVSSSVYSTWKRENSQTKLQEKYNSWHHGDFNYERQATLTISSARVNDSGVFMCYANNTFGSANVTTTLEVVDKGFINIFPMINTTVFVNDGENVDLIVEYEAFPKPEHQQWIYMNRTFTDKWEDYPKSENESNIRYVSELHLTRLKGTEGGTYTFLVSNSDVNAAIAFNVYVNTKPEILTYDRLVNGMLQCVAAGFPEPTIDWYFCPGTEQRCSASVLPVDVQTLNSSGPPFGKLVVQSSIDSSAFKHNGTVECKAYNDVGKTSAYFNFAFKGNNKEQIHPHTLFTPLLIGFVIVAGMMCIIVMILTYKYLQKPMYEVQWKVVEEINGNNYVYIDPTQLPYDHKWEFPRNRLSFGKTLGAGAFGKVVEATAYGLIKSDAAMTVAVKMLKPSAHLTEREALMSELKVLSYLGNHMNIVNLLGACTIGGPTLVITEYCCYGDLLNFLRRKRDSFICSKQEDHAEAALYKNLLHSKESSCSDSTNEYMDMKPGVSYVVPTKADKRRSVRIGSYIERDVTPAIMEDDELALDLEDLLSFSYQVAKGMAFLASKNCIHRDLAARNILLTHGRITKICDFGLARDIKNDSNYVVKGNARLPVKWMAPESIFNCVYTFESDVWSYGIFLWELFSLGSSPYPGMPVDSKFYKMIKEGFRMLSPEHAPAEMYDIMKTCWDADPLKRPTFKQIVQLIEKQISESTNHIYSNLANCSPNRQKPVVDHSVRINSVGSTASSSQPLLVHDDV

Row | Structure (SMILES) | IC50 (c-kit kinase) | IC50 (c-kit mutant D816V) | IC50 [1]
1 | O=C(Nc1cnc2[nH]c(-c3ccccc3)cc2c1)c1n[nH]c2ccc(F)cc12 [P-2010, 5-fluoro-N-(2-phenyl-1H-pyrrolo[2,3-b]pyridin-5-yl)-1H-indazole-3-carboxamide] | 10 to 200 µM | 10 to 200 µM | 
2 | O=S(=O)(Nc1cnc2[nH]c(-c3ccccc3)cc2c1)c1cn[nH]c1 [P-2018] | 10 to 200 µM | 10 to 200 µM | 
3 | NC(=O)c1cccc(C(=O)Nc2cnc3[nH]c(-c4ccc(F)cc4)cc3c2)c1 [P-2020, N3-[2-(4-fluorophenyl)-1H-pyrrolo[2,3-b]pyridin-5-yl]benzene-1,3-dicarboxamide] | 1 to 10 µM |  | < 10 µM
4 | Cc1n[nH]c(C(=O)Nc2cnc3[nH]c(-c4ccc(F)c(C)c4C)cc3c2)c1C [P-2279, N-[2-(4-fluoro-2,3-dimethyl-phenyl)-1H-pyrrolo[2,3-b]pyridin-5-yl]-3,4-dimethyl-1H-pyrazole-5-carboxamide] | 10 to 200 µM |  | < 10 µM
5 | Cc1cc2cc(NC(=O)c3cccc4n[nH]cc34)cnc2[nH]1 [P-2301, N-(2-methyl-1H-pyrrolo[2,3-b]pyridin-5-yl)-2H-indazole-4-carboxamide] | 10 to 200 µM |  | < 10 µM
